Experimental data reported in article PMC12677607, “Identification of a Pair of Linear or Cyclic Naturally Inspired Bifunctional Lipopeptide Antibiotics That Overcome Antimicrobial Resistance” (Advanced Science, 2025).
Values after ≈ are worked out from the molar mass of the structure shown. Bridge positions count the residues as written; N and C are the ends. Square brackets hold non-standard residues; d marks the D form. Peptide text beside a SMILES is read from it. * marks the point of attachment. Myristoyl = CCCCCCCCCCCCCC(=O)*; Orn = NCCC[C@H](N)C(=O)O; Dab = NCC[C@H](N)C(=O)O; Dap = NC[C@H](N)C(=O)O

What was measured:
[1] = tested on: S. aureus USA300 Cls2A338stop; assay: MIC against telomycin-resistant mutant; format: cell-based
Protocol: All MIC assays were performed two independent times (n = 2) in 96‐well plates using a broth micro‐dilution method. The lowest concentration of that inhibited visible microbial growth was recorded as the MIC value.
For most of bacterial strains, overnight cultures were diluted 5000‐fold in LB broth. For E. faecium and S. aureus, overnight cultures were diluted 1000‐ and 10000‐fold in LB broth, respectively. 100 µL of diluted cells was mixed with 100 µL of LB broth containing each peptide ranging from 64 to 0.125 µg mL^−1 at 2‐fold serial dilutions.
(§1) Overnight cultures S. aureus USA300 were diluted 10000‐fold in LB broth, and 100 µL of dilute cell suspension was added to 96‐well plates containing 100 µL serially diluted aquicidine C4, telomycin, and daptomycin (with 15 mM CaCl2). Overnight cultures K. pneumoniae CRKP5452 were diluted 5000‐fold in LB broth, and 100 µL of dilute cell suspension was added to 96‐well plates containing 100 µL serially diluted aquicidine L and colistin. After an incubation of 24 h at 37 °C, the MIC value was determined. […] The MIC value was recorded as described above, and the process was repeated daily for 21 days. Experiments were performed two independent times (n = 2).
Single‐nucleotide polymorphisms (SNPs) for telomycin‐, daptomycin‐ or colistin‐resistant mutants were identified using SNIPPY by mapping DNBSEQ‐seq reads to the reference genome of S. aureus USA300 or K. pneumoniae CRKP5452.

S. aureus USA300 [2] = assay: Scanning electron microscopy of treated cultures; format: cell-based; details: 4× the MIC, after 180 min of treatment
S. aureus USA300 [3] = assay: Resistance acquisition by serial passaging; format: cell-based; details: S. aureus USA300, sub-MIC levels, daily passage for 21 days, n = 2
Protocol: as §1

[4] = tested on: methicillin-resistant S. aureus USA300; assay: Mouse peritonitis-sepsis model; format: in vivo; details: S. aureus USA300, ICR mice, single s.c. dose 1 h after infection, doses 50, 100, 150 mg kg^−1, n = 5
Protocol: (§2) Six‐week‐old female ICR mice were used in all experiments and housed in a temperature‐controlled room (25 °C) with 12‐h light/dark cycle and 30% relative humidity. Mice were observed twice daily for mortality and morbidity. Abnormal clinical signs were recorded if observed and totally monitored for five days. The detailed methods for the mouse peritonitis‐sepsis model were as follows.
Methicillin‐resistant S. aureus USA300 was cultured in LB broth at 37 °C for 16 h and diluted with 7% type II porcine stomach mucin with 0.2 mM FeNH4‐citrate. S. aureus cell cultures were diluted to provide a challenge inoculum of 2.5 × 10^8 CFU in 0.5 mL and then administered into each mouse via intraperitoneal injection. 25 mice were randomly grouped into five per cohort (n = 5) and each cohort was given a single dose of either vehicle (20% solutol), aquicidine C4 at 50, 100, or 150 mg kg^−1, and vancomycin at 50 mg kg^−1 1 hr after infection via subcutaneous injection.

Shigella Castellani LXX = assay: MIC assay (broth micro-dilution); format: cell-based; details: Table S11; LB broth, 37 °C, 16 h, n = 2
Procedure, shortened: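 MIC = lowest peptide concentration with no visible growth; LB broth microdilution, n = 2. Inoculum: overnight culture diluted 5000× (S. aureus 10000×). Peptides serially diluted 2-fold, 64–0.125 µg mL^−1 in the broth added to cells.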

K. pneumoniae CRKP5452 = assay: Resistance acquisition by serial passaging; format: cell-based; details: K. pneumoniae CRKP5452, sub-MIC levels, daily passage for 21 days, n = 2
Protocol: as §1

[5] = tested on: meropenem-resistant A. baumannii 1104008; assay: Mouse peritonitis-sepsis model; format: in vivo; details: A. baumannii 1104008, neutropenic ICR mice, s.c. 1 h after infection and every 12 h up to 36 h, doses 12.5, 25, 50 mg kg^−1, n = 5
Protocol: as §2
(§3) Meropenem‐resistant A. baumannii 1104008 or K. pneumoniae CRKP 5452 was cultured in LB broth at 37 °C fro 16 h and diluted with 5% type II porcine stomach mucin and 0.9% NaCl. All mice were rendered […] via intraperitoneal injection of cyclophosphamide at 150 mg/kg on day‐4 and day‐1 before infection. A. baumannii or K. pneumoniae cell cultures were diluted to provide a challenge inoculum of 5.0 × 10^7 CFU in 0.5 mL and then administered into each mouse via intraperitoneal injection. 25 mice were randomly grouped into five per cohort (n = 5) and each cohort was given a single dose of either vehicle (20% solutol), aquicidine L at 12.5, 25, or 50 mg kg^−1, and colistin at 12.5 mg kg^−1 1 h after infection via subcutaneous injection and repeated every 12 h up to 36 h (totally four injections).

[6] = tested on: meropenem-resistant K. pneumoniae CRKP 5452; assay: Mouse peritonitis-sepsis model; format: in vivo; details: K. pneumoniae CRKP5452, neutropenic ICR mice, s.c. 1 h after infection and every 12 h up to 36 h, doses 12.5, 25, 50 mg kg^−1, n = 5
Protocol: as §2, §3

| SMILES | antibacterial activity (MIC) S. aureus USA300 Cls2A338stop ([1]; Figure S127b, telomycin-resistant mutant) [µg/mL] | increase in MIC against resistant mutant compared to wild type ([1]; S. aureus USA300 Cls2^A338stop vs wild type) [fold] | scanning electron microscopy, cell lysis (S. aureus USA300 [2]) | increase of MIC during serial passaging (S. aureus USA300 [3]) | minimal dose required for 100% survival [4] [mg/kg] | MIC Shigella Castellani LXX (Shigella Castellani LXX) [µg/mL] | increase of MIC during serial passaging (K. pneumoniae CRKP5452) | minimal dose required for 100% survival [5] [mg/kg] | minimal dose required for 100% survival [6] [mg/kg] |
| --- | --- | --- | --- | --- | --- | --- | --- | --- | --- |
| CCCCCCCCCCCCCC(=O)N[C@@H](CN)C(=O)N[C@H](C(=O)N[C@@H](CC(C)C)C(=O)N[C@H]1COC(=O)[C@H](Cc2ccccc2)NC(=O)[C@H](CC(N)=O)NC(=O)[C@H](CCCN)NC(=O)[C@H]([C@@H](C)CC)NC(=O)[C@H](Cc2ccccc2)NC(=O)[C@H](CN)NC(=O)[C@H](CCN)NC1=O)[C@@H](C)O [synAQU5-C4] (Myristoyl-[Dap]TLS[Dab][Dap]FI[Orn]NF; ester 4-C) | 16 | 4 | lysed the majority of cells | no higher than twofold | 100 |  |  |  |  |
| CCCCCCCCCCCCCC(=O)N[C@@H](CN)C(=O)N[C@H](C(=O)N[C@@H](CC(C)C)C(=O)N[C@@H](CO)C(=O)N[C@@H](CCN)C(=O)N[C@@H](CN)C(=O)N[C@@H](Cc1ccccc1)C(=O)N[C@H](C(=O)N[C@@H](CCCN)C(=O)N[C@@H](CC(N)=O)C(=O)N[C@@H](Cc1ccccc1)C(=O)O)[C@@H](C)CC)[C@@H](C)O [synAQU5-L] (Myristoyl-[Dap]TLS[Dab][Dap]FI[Orn]NF-OH) |  |  |  |  |  | 8 (≈ 5.56 µM) | no higher than two‐fold | 50 | 50 |
